The record followed here is PubChem BioAssay (NCI).

Some test systems named below: EKVX NSCLC; HCT-116 colon; IGROV1 ovarian; NCI-H522 lung; OVCAR-3 ovarian; RPMI-8226 leukemia; RXF 393 renal; SW-620 colon; SK-MEL-5 melanoma; NCI/ADR-RES ovarian.
What all share (test): NCI anticancer screen, dose series, 48 h

Several values for one entry are separate records, joined by “and”; a condition that tells them apart may be missing. Equal entries are not always repeated.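 Dose response: 5 concentrations. Exposure: 48 h. Format: 96-well plates. Endpoint: linear interpolation; highest concentration if not reached. Here, GI50 denotes the concentration required for 50% inhibition of growth. TGI marks complete inhibition of growth.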 A value given as a limit tells only on which side of the number the result lay.

In the case of `O=C(Nc1ccc(Br)cc1)C(=O)C(C(=O)c1ccc(Cl)c(Cl)c1)C1OC(=O)c2ccccc21` (stereo not drawn), the TGI in the assay on EKVX NSCLC was more than 100 µM; in the assay with HCT-116 colon it was 25.9 µM; with IGROV1 ovarian, 42.8 µM; with NCI-H522 lung it was 47.9 µM; with OVCAR-3 ovarian, 67.3 µM; in the assay with RPMI-8226 leukemia, more than 100 µM. Besides, the TGI with RXF 393 renal is 17.9 µM; in the assay on SW-620 colon, 38.4 µM.

For the compound `C=CCC1(CN(C)C)CC/C(=C\c2ccc3c(c2)OCO3)C1=O` (stereo not drawn), the TGI in the assay with EKVX NSCLC was 66.9 µM; in the assay with HCT-116 colon, more than 100 µM; in the assay with IGROV1 ovarian, more than 100 µM; with NCI-H522 lung it was 40.2 µM; in the assay with OVCAR-3 ovarian, more than 100 µM; in the assay with RPMI-8226 leukemia, 59.4 µM. Moreover, the TGI in the assay with RXF 393 renal is more than 100 µM; in the assay with SK-MEL-5 melanoma it was 60.5 µM; in the assay on SW-620 colon, more than 100 µM.

For `O=C(Nc1ccc(Cl)c(Cl)c1)c1ccc(NC2=C(Cl)C(=O)N(Cc3ccccc3)C2=O)cc1`, the GI50 was 23.3 µM in the assay with EKVX NSCLC; 1.94 µM with HCT-116 colon; 2.71 µM with IGROV1 ovarian; 13.1 µM with NCI-H522 lung; 5.04 µM in the assay on NCI/ADR-RES ovarian; 2.14 µM in the assay on OVCAR-3 ovarian. The GI50 with RPMI-8226 leukemia was 2.02 µM; in the assay on SK-MEL-5 melanoma, 5.02 µM. Besides, the TGI in the assay with EKVX NSCLC came to 48.6 µM; in the assay with HCT-116 colon, 4.25 µM; in the assay with IGROV1 ovarian, 8.14 µM; in the assay with NCI-H522 lung, 27.2 µM; in the assay on NCI/ADR-RES ovarian, 17 µM; in the assay on OVCAR-3 ovarian it was 4.86 µM. Also, the TGI in the assay on RPMI-8226 leukemia was 4.29 µM; in the assay with SK-MEL-5 melanoma, 17.9 µM.

In the case of `CCCCCCCCCCCCCCNCC(OC)OC`, the TGI in the assay with EKVX NSCLC came out at 34.2 µM; with HCT-116 colon, 26 µM; with IGROV1 ovarian it was 32.3 µM; in the assay with NCI-H522 lung, 34.2 µM; in the assay on OVCAR-3 ovarian, 32.6 µM; with RXF 393 renal it was 28.9 µM. For the same compound, the TGI turned out to be 29.3 µM in the assay on SK-MEL-5 melanoma and 33.2 µM in the assay with SW-620 colon.

With `C=CC1=C(C)C(/C=c2\[nH]/c(=C/c3[nH]c(CC4NC(=O)C(C)/C4=C\C)c(C)c3CCC(=O)O)c(CC(=O)O)c2C)=NC1=O` (stereo not drawn), the TGI in the assay on EKVX NSCLC, in the assay with HCT-116 colon, in the assay on IGROV1 ovarian, with NCI-H522 lung, in the assay with OVCAR-3 ovarian and in the assay with RXF 393 renal was more than 100 µM in each case. In the assay with SW-620 colon, the TGI was more than 100 µM.

In the case of `CCC(O)CCCCCCCCCCCCCCC(=O)O` (stereo not drawn), the TGI with EKVX NSCLC, with HCT-116 colon, in the assay with IGROV1 ovarian, in the assay with NCI-H522 lung, with OVCAR-3 ovarian and in the assay with RPMI-8226 leukemia was more than 100 µM each time. Further, the TGI was more than 100 µM with RXF 393 renal, 40.6 µM in the assay on SK-MEL-5 melanoma and more than 100 µM in the assay with SW-620 colon.

Take `COc1cc(C2c3cc4c(cc3[C@@H](NC3CCN(Cc5ccccc5)CC3)C3COC(=O)[C@H]23)OCO4)cc(OC)c1O` (stereo partly drawn): the GI50 is 0.369 µM and 0.783 µM in the assay with EKVX NSCLC; 0.0827 µM in the assay with NCI-H522 lung; 0.151 µM and 0.054 µM with RPMI-8226 leukemia; 0.185 µM and 0.399 µM in the assay with RXF 393 renal; 0.206 µM and 0.0739 µM in the assay with SK-MEL-5 melanoma; 0.232 µM and 0.076 µM in the assay on SW-620 colon. In addition, the TGI was 2.43 µM and 3.96 µM with EKVX NSCLC; 2.28 µM and 1.59 µM in the assay on HCT-116 colon; 3.59 µM and 0.567 µM in the assay with IGROV1 ovarian; 0.321 µM in the assay with NCI-H522 lung; 1.56 µM and 1.04 µM with OVCAR-3 ovarian; 2.82 µM and 0.465 µM in the assay on RPMI-8226 leukemia. Moreover, the TGI with RXF 393 renal was 0.768 µM and 0.927 µM; in the assay on SK-MEL-5 melanoma, 1.4 µM and 0.373 µM; in the assay on SW-620 colon, 2.42 µM and 1.08 µM.

`O=C(Nc1ccc(Br)c2ccccc12)c1ccc2ccccc2c1O`: the TGI is more than 100 µM with EKVX NSCLC; 11.2 µM in the assay with HCT-116 colon; 16.4 µM with IGROV1 ovarian; 6.83 µM with NCI-H522 lung; 12.9 µM in the assay on NCI/ADR-RES ovarian; 35.7 µM with OVCAR-3 ovarian. For the same compound, the TGI in the assay on SK-MEL-5 melanoma was 3.78 µM; in the assay with SW-620 colon, 14.8 µM.

In the case of `CC(=O)C(CN1C(=O)c2ccccc2C1=O)C(C)=O`, the TGI is more than 100 µM in the assay with EKVX NSCLC; more than 100 µM with HCT-116 colon; more than 100 µM in the assay on IGROV1 ovarian; more than 100 µM in the assay on NCI-H522 lung; more than 100 µM in the assay on OVCAR-3 ovarian; 53.8 µM with RXF 393 renal. Also, the TGI in the assay with SK-MEL-5 melanoma and in the assay with SW-620 colon was more than 100 µM in each case.

In the case of `CC(NNC(=S)N1CCN(c2ccccn2)CC1)c1nccc2ccccc12` (stereo not drawn), the TGI was determined as 11.4 µM in the assay on EKVX NSCLC; 9.29 µM in the assay on HCT-116 colon; 18.5 µM with IGROV1 ovarian; 14 µM in the assay with NCI-H522 lung; 12 µM with NCI/ADR-RES ovarian; 13.2 µM in the assay with OVCAR-3 ovarian. Further, the TGI turned out to be 8.53 µM with RXF 393 renal, 12.3 µM with SK-MEL-5 melanoma and 20.1 µM in the assay on SW-620 colon.

Regarding `Cc1cc(-c2ccccc2)nc(Nc2cc3ccccc3[nH]2)n1`, the TGI in the assay on EKVX NSCLC, in the assay on HCT-116 colon, with IGROV1 ovarian, in the assay with NCI-H522 lung, in the assay on OVCAR-3 ovarian and in the assay on RPMI-8226 leukemia was more than 100 µM in each case. The TGI with SK-MEL-5 melanoma and with SW-620 colon was more than 100 µM each time.

In the case of `CCCCCCCCCC1CC(=O)OC2=C1C(=O)CCC2` (stereo not drawn), the TGI with EKVX NSCLC, with HCT-116 colon, in the assay with IGROV1 ovarian, with NCI-H522 lung, in the assay with OVCAR-3 ovarian and in the assay on RPMI-8226 leukemia was more than 100 µM in each case. The TGI with RXF 393 renal, with SK-MEL-5 melanoma and with SW-620 colon was more than 100 µM in each case.

On to `CCCCCCC(=O)NC1=C(N2CC2)C(=O)C(NC(=O)CCCCCC)=C(N2CC2)C1=O`, for which the GI50 was 2.31 µM in the assay on IGROV1 ovarian; 3.18 µM with NCI/ADR-RES ovarian; 1.53 µM in the assay on OVCAR-3 ovarian; 16.3 µM in the assay on RXF 393 renal; 2.25 µM with SW-620 colon. Also, the TGI in the assay with IGROV1 ovarian was more than 100 µM; in the assay on NCI/ADR-RES ovarian it was more than 100 µM; with OVCAR-3 ovarian, 4.85 µM; in the assay with RXF 393 renal, 79.5 µM; in the assay on SW-620 colon, more than 100 µM.

For the compound `Cc1cc(N(CCC#N)S(=O)(=O)c2ccccc2)ccc1C=Nc1ccc(C(=O)O)cc1`, the TGI was 35.8 µM in the assay with EKVX NSCLC; 14.7 µM in the assay with HCT-116 colon; 46.5 µM in the assay with IGROV1 ovarian; 9.13 µM in the assay on NCI-H522 lung; 21.5 µM in the assay on OVCAR-3 ovarian; more than 21.2 µM with RPMI-8226 leukemia. Also, the TGI in the assay with RXF 393 renal turned out to be 6.72 µM; in the assay with SK-MEL-5 melanoma, 24.3 µM; in the assay on SW-620 colon, 15 µM.
